Assay results: patent US20230183243A1, “HETEROARYL DERIVATIVES AND PHARMACEUTICAL COMPOSITION COMPRISING SAME AS ACTIVE INGREDIENT” (VORONOI INC., priority 2019, published 2023)

Assays:
Assay in all cases: ScanMAX Kinase panel (DiscoverX)
Assay type in all cases: binding
TTK = target: T1, TTK (Homo sapiens, UniProt P33981); set-up: purchased DiscoverX Corp. (ScanMAX Kinase panel, commissioned); settings: read-out: % Cont @ 1 μM
T1 sequence (P33981 1-857): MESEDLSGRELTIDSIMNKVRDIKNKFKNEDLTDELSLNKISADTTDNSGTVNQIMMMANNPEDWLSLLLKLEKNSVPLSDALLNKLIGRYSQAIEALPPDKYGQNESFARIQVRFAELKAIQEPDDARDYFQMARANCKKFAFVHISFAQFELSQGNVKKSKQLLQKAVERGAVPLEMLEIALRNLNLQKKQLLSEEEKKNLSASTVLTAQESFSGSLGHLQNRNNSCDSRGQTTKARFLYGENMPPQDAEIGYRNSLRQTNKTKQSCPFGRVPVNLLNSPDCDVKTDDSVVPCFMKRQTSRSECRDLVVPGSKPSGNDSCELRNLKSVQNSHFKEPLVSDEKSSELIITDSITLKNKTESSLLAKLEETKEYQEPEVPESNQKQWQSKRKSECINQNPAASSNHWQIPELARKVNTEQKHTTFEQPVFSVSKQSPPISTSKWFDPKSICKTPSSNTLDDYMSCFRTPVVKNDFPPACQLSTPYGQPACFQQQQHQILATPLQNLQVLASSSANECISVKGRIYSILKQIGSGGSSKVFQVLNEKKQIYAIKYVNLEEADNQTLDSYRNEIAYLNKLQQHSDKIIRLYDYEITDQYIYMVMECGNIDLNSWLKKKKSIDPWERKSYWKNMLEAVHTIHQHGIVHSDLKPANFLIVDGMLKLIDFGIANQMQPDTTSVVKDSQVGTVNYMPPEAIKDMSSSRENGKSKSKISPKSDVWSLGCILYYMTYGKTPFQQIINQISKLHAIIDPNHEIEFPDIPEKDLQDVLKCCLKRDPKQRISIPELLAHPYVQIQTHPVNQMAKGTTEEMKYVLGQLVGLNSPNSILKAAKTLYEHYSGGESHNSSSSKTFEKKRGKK
Description: (§1) Specifically, the enzyme (kinase) selectivity of the compound of Example 7 selected from the Example compounds of the present invention was measured by commissioning DiscoverX Corp., and an experiment was performed using a panel for ScanMAX™ Kinase analysis.
(§2) In this case, the concentration of a drug treated with the enzyme was set at 1 μM in DMSO, and percent control (% control) was defined in the same manner as in the following Expression 1.
(§3) (Example compound−Positive control)/(Negative control−Positive control)×100 [Expression 1]
(§4) Wherein the positive control represents a compound having a percent control of 0%, and the negative control represents a compound having a percent control of 100% in DMSO. For the enzyme selectivity of the present invention, the compound was also judged to have activity against the corresponding enzyme when the percent control for each of the enzymes was <30% (i.e., less than 30%).
(§5) Further, to evaluate the inhibitory activity of the compound according to the present invention against more enzymes, an experiment was performed as follows. Specifically, the enzyme (kinase) selectivity of the compound of Example 64 selected from the Example compounds of the present invention was measured by commissioning DiscoverX Corp., and an experiment was performed using a panel for ScanMAX™ Kinase analysis. In this case, the concentration of a drug treated with the enzyme was set at 1 μM in DMSO, and the percent control (% control) were defined in the same manner as in the following Expression 1.
as §4, with “<35%” for “<30%”, “35%).” for “30%).”

LRRK2 = LRRK2 (Homo sapiens, UniProt Q5S007); set-up: purchased DiscoverX Corp. (ScanMAX Kinase panel, commissioned); settings: read-out: % Cont @ 1 μM
Description: as §1, §2, §3, §4, §5
as §4, with “<35%” for “<30%”, “35%).” for “30%).”

JNK1 = target: T2, JNK1 (Homo sapiens, UniProt P45983)
T2 construct: purchased DiscoverX Corp. (ScanMAX Kinase panel, commissioned)
T2 sequence (P45983 whole entry): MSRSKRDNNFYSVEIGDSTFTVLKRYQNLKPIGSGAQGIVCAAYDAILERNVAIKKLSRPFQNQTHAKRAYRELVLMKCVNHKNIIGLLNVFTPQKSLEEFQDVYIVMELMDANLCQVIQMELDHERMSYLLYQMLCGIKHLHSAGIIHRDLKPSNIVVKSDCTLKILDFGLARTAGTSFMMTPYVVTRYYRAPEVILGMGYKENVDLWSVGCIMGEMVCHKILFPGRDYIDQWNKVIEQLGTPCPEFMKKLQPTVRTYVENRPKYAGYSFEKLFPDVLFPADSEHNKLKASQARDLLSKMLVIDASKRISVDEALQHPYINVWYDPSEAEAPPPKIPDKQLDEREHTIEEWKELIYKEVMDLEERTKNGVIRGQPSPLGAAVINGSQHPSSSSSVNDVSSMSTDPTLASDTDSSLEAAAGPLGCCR
Description: as §1, §2, §3, §4, §5
as §4, with “<35%” for “<30%”, “35%).” for “30%).”

MAPKAPK2 = target: T3, MAPKAPK2 (Homo sapiens, UniProt P49137); settings: read-out: % Cont @ 1 μM
T3 construct: purchased DiscoverX Corp. (ScanMAX Kinase panel, commissioned)
T3 sequence (P49137 whole entry): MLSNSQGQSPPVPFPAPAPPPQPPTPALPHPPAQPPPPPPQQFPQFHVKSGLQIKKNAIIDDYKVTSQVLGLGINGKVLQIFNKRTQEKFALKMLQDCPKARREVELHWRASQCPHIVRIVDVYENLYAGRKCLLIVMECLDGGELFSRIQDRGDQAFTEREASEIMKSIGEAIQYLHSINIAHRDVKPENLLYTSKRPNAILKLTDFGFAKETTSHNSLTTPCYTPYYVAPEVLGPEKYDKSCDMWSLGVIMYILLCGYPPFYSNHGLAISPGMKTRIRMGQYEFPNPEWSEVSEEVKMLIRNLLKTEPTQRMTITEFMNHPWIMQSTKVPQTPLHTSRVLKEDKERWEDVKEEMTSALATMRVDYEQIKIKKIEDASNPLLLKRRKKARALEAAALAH
Description: as §1, §2, §3, §4, §5
as §4, with “<35%” for “<30%”, “35%).” for “30%).”

LRRK2(G2019S) = target: T4, LRRK2(G2019S) (Homo sapiens, UniProt Q5S007, G2019S); settings: read-out: % Cont @ 1 μM
T4 construct: purchased DiscoverX Corp. (ScanMAX Kinase panel, commissioned)
Description: as §1, §2, §3, §4, §5
as §4, with “<35%” for “<30%”, “35%).” for “30%).”

[1] = target: T5, ABL1(F317L)-nonphosphorylated (Homo sapiens, UniProt P00519, F317L); settings: read-out: % Cont @ 1 μM
T5 construct: purchased DiscoverX Corp. (ScanMAX Kinase panel, commissioned)
T5 sequence (P00519 whole entry F317L): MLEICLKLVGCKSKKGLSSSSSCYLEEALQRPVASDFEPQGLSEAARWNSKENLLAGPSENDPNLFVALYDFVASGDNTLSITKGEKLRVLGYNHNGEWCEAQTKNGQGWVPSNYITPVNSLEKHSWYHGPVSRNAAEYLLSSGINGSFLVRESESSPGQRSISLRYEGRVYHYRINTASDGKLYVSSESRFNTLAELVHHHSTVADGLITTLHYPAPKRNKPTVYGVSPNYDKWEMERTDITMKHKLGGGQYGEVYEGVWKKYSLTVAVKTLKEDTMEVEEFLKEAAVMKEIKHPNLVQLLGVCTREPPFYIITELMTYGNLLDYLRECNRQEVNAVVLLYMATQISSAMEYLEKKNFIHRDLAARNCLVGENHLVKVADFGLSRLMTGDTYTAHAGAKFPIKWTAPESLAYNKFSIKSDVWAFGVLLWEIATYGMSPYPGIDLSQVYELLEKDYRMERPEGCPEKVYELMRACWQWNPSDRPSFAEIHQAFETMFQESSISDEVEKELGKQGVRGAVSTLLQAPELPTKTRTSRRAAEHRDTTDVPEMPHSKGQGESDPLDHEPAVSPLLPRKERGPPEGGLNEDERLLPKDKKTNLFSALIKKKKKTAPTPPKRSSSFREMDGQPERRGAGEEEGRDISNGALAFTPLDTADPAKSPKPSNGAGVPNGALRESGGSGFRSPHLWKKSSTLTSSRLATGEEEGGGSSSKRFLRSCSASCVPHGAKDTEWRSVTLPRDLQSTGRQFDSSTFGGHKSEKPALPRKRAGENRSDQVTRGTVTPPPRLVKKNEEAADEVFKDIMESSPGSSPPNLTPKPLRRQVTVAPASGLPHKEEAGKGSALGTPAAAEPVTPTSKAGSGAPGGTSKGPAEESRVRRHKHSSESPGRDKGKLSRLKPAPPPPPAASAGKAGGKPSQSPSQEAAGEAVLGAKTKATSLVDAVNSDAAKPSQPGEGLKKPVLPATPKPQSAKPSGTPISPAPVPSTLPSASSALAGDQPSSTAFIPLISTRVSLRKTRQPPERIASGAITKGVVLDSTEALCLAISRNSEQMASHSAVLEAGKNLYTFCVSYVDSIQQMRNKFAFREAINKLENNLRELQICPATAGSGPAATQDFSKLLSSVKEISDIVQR
Description: as §1, §2, §3, §4, §5
as §4, with “<35%” for “<30%”, “35%).” for “30%).”

SRPK3 = target: T6, SRPK3 (Homo sapiens, UniProt Q9UPE1); settings: read-out: % Cont @ 1 μM
T6 construct: purchased DiscoverX Corp. (ScanMAX Kinase panel, commissioned)
T6 sequence (Q9UPE1 whole entry): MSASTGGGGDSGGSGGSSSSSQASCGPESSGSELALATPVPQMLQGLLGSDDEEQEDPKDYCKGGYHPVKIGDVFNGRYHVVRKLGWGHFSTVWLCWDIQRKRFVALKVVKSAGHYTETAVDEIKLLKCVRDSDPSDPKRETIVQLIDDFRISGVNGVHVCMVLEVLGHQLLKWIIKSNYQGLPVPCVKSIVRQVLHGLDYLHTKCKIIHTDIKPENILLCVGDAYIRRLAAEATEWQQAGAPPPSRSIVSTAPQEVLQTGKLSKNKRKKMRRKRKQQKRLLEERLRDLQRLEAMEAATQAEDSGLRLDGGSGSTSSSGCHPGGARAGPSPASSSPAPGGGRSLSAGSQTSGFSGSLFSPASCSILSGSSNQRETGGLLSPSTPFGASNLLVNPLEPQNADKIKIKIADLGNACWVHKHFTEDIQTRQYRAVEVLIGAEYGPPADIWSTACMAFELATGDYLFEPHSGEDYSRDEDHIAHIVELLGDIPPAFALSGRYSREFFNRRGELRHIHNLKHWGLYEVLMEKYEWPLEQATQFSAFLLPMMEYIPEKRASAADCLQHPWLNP
Description: as §1, §2, §3, §4, §5
as §4, with “<35%” for “<30%”, “35%).” for “30%).”

RIPK5 = target: T7, RIPK5 (Homo sapiens, UniProt Q6XUX3); settings: read-out: % Cont @ 1 μM
T7 construct: purchased DiscoverX Corp. (ScanMAX Kinase panel, commissioned)
T7 sequence (Q6XUX3 whole entry): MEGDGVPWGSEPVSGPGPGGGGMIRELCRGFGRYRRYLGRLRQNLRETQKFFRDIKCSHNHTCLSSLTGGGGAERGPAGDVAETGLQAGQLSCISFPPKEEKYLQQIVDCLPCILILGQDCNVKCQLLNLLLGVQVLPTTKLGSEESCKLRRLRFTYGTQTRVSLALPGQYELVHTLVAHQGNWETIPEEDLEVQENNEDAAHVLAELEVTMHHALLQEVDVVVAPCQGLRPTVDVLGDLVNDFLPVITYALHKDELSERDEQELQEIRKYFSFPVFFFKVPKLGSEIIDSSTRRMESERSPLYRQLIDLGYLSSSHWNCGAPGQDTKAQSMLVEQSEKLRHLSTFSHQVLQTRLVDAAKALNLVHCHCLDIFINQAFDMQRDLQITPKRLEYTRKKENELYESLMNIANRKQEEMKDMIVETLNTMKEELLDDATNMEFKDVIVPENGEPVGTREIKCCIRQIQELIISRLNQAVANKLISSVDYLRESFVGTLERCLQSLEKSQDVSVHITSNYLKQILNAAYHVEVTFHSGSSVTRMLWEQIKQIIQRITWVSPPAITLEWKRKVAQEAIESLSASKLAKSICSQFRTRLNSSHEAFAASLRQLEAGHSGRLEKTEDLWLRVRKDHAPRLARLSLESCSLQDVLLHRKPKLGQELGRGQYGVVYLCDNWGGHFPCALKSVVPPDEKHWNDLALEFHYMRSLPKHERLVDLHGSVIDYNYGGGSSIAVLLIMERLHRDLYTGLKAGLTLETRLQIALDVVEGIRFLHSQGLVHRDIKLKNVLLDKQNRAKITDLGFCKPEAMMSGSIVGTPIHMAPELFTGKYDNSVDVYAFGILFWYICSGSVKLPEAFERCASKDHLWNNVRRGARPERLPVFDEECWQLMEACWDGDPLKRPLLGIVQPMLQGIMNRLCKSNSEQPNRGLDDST
Description: as §1, §2, §3, §4, §5
as §4, with “<35%” for “<30%”, “35%).” for “30%).”

GRK4 = target: T8, GRK4 (Homo sapiens, UniProt P32298); settings: read-out: % Cont @ 1 μM
T8 construct: purchased DiscoverX Corp. (ScanMAX Kinase panel, commissioned)
T8 sequence (P32298 whole entry): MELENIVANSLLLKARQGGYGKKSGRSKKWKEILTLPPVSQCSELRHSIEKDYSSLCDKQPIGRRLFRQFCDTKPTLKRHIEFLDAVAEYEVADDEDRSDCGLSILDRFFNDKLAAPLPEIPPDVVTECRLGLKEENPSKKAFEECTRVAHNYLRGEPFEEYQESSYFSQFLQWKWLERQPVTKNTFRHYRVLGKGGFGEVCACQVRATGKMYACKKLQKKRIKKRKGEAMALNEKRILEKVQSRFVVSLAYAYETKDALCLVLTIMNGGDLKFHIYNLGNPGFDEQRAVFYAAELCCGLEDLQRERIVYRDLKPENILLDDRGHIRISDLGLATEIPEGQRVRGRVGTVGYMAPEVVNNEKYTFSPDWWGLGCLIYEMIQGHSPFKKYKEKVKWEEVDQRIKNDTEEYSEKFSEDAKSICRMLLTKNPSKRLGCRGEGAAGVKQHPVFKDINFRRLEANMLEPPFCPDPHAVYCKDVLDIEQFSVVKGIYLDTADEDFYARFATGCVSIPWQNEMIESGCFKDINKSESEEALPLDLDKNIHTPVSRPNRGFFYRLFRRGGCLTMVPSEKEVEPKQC
Description: as §1, §2, §3, §4, §5
as §4, with “<35%” for “<30%”, “35%).” for “30%).”

JNK2 = target: T9, JNK2 (Homo sapiens, UniProt P45984)
T9 construct: purchased DiscoverX Corp. (ScanMAX Kinase panel, commissioned)
T9 sequence (P45984 whole entry): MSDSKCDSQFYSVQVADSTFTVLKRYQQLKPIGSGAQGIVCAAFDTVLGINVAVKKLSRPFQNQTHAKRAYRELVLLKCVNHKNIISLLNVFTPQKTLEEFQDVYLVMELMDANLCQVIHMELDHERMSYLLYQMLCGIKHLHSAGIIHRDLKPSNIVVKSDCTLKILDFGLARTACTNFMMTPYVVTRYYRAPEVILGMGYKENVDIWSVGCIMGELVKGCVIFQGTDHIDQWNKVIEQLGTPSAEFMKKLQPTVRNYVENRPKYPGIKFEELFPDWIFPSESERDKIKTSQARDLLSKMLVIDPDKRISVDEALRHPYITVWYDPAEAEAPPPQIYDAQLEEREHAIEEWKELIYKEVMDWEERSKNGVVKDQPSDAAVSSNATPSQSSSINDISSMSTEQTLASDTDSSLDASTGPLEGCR
Description: as §1, §2, §3, §4, §5
as §4, with “<35%” for “<30%”, “35%).” for “30%).”

JNK3 = target: T10, JNK3 (Homo sapiens, UniProt P53779)
T10 construct: purchased DiscoverX Corp. (ScanMAX Kinase panel, commissioned)
T10 sequence (P53779 whole entry): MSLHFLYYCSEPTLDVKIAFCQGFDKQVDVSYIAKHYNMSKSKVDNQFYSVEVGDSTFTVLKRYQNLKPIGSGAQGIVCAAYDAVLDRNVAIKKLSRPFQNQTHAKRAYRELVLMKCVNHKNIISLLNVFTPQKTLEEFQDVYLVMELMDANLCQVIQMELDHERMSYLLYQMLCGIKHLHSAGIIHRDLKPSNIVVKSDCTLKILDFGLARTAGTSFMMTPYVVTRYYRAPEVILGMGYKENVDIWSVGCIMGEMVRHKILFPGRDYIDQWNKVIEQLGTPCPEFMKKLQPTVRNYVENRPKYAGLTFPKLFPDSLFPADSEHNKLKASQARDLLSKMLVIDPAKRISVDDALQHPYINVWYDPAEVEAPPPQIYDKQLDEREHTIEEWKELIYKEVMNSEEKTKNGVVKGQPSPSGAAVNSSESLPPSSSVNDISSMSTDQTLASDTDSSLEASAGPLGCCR
Description: as §1, §2, §3, §4, §5
as §4, with “<35%” for “<30%”, “35%).” for “30%).”

percent of control at 1 µM (TTK) [%] | percent of control binding at 1 µM (LRRK2) [%] | % Cont @ 1 μM (JNK1) [%] | remaining binding at 1 µM (MAPKAPK2) [%] | percent of control (kinase binding) at 1 µM (LRRK2(G2019S)) [%] | remaining binding at 1 µM [1] [%] | remaining binding at 1 µM (SRPK3) [%] | percent of control binding at 1 µM (RIPK5) [%] | remaining binding at 1 µM (GRK4) [%] | % Cont @ 1 μM (JNK2) [%] | % Cont @ 1 μM (JNK3) [%] | Structure (SMILES)
0.25 | 4.8 | 2 | 28 | 2.7 | 28 | 30 | 17 | 29 | 13 | 4.3 | COc1cc(-c2ccnn2C)ccc1Nc1nc(NC2CCCCC2)c2c(C#N)c[nH]c2n1 [Example 7, 4-(cyclohexylamino)-2-((2-methoxy-4-(1-methyl-1H-pyrazol-5-yl)phenyl)amino)-7H-pyrrolo[2,3-d] pyrimidine-5-carbonitrile]
0.25 | 14 | 0.9 | 28 | 17 | 26 | 28 | 30 | 26 | 4.1 | 1.7 | COc1cc(N2CCCC2=O)ccc1Nc1cc(NC2CCCCC2)c2c(C#N)c[nH]c2n1 [Example 64, 4-(cyclohexylamino)-6-((2-methoxy-4-(2-oxopyrrolidin-1-yl)phenyl)amino)-1H-pyrrolo[2,3-b] pyridine-3-carbonitrile]
